Laboratory results published in patent publication US20190127805A1, “GENE SIGNATURES FOR CANCER DETECTION AND TREATMENT” (ALMAC DIAGNOSTICS LIMITED, priority 2016, published 2019).
Like-named read-outs stand apart in the source and are kept apart here.

How the values were obtained:
[1] = system: platinum resistant epithelial ovarian cancer; conditions: cited from earlier work
ovarian cancer [2] = conditions: cited from earlier work
[3] = system: platinum sensitive recurrent ovarian cancer; conditions: cited from earlier work
ovarian cancer [4] = conditions: cited from earlier work; remark: listed apart in the source
[5] = system: OVCAR3 isogenic cell lines co-cultured with ECFCs; experiment: In-vivo Matrigel plug angiogenesis assay (micro-vessel density); set-up: species or system Athymic nude mice; conditions: 5 mg/kg IP; OVCAR3 cisplatin-resistant vs cisplatin-naïve cells, p-value 0.0024 (FIG. 44)
Procedure: All animal experiments were performed in conformity to UK Home Office Regulations (PPL2729) and with authorization from Queen's University Belfast Animal Welfare and Ethical Review Body (AWERB). Eight week-old male Athymic nude mice (Harlan Laboratories) were used. ECFC were inoculated at a high density of 2.45×106 and co-cultured with GFP-labelled OVCAR3 WT or GFP-labelled OVCAR3-CP at a density of 1.4×106. The GFP-labelled OVCAR3 WT and GFP-labelled OVCAR3-CP were seeded alone at a density of 1.4×106. Each condition was diluted in 10 μL of phenol red-free DMEM and re-suspended in 90 μL of growth factor-reduced Matrigel (Corning) and injected subcutaneously. After 8 days, mice were sacrificed under isoflurane anaesthesia using 31 gauge needless intraperitoneal (IP) administration of sodium pentobarbital at 200 mg/kg, and implants were removed and fixed in 4% formaldehyde overnight. Fixed Matrigel implants were then embedded in paraffin and 10 μm sections were prepared for staining. For 5 mg/Kg bevacizumab was administered IP once weekly for 14 days. Treatment was commenced on day 3. Mice were sacrificed after a 14-day treatment period as previously described.
IHC and immunofluorescence studies were conducted as previously describe. […] CD31 and αSMA stained vessels were then counted per high power field (200×) in three separate fields of three independent tumors from each group. […]

## bevacizumab: recombinant humanised monoclonal antibody that binds to vascular endothelial growth factor A (VEGF-A)
[1]; bevacizumab and chemotherapy
  objective response rate (ORR): 30.9%
[1]; chemotherapy and bevacizumab arm (chemotherapy alone 13.3 months)
  overall survival: 16.6 months
[1]; patients treated with bevacizumab and paclitaxel
  PFS: 9.6 months
[1]; single agent chemotherapy and bevacizumab (chemotherapy alone 3.4 months)
  Progression free survival: 6.7 months
[1]; vs chemotherapy alone, 95% CI 0.32-0.53, p<0.001
  hazard ratio for progression free survival: 0.42
[1]; vs chemotherapy alone, 95% CI 0.69-1.14, not statistically significant
  HR for overall survival: 0.89
Ovarian cancer [2]; bevacizumab cycle 2-6, 95% CI 0.795 to 1.040, P=0.16
  HR for PFS: 0.908
Ovarian cancer [2]; bevacizumab plus chemotherapy cycle 2-22, 95% CI 0.625 to 0.824, P<0.001
  HR for PFS: 0.717
Ovarian cancer [2]; bevacizumab plus standard chemotherapy cycle 2-22 (control 10.3 months)
  PFS: 14.1 months
Ovarian cancer [2]; bevacizumab with standard chemotherapy cycle 2-6 (control 10.3 months)
  PFS: 11.2 months
[3]; bevacizumab + gemcitabine and carboplatin (placebo+GC 8.4 months)
  Median progression free survival: 12.4 months
[3]; vs placebo+GC, 95% CI 0.388-0.605, p<0.0001
  HR for progression free survival: 0.484
Ovarian cancer [4]; standard therapy plus bevacizumab (standard therapy alone 20.3 months)
  progression free survival (PFS): 21.8 months
Ovarian cancer [4]; vs standard therapy, 95% CI 0.70 to 0.94, P=0.004
  hazard ratio (HR) for PFS: 0.81
[5]
  MVD (micro-vessel density): less MVD
